Experimental data reported in patent US11844803B2, “Renal dysfunction improving drug comprising optical isomer of 1,4-benzothiazepine-1-oxide derivative” (AETAS PHARMA CO., LTD., priority 2017, dated 2023).
Like-named read-outs stand apart in the source and are kept apart here.

Key:
dog renal function = assay: Action on dog renal function, anesthetized beagle, ureter cannulation, cumulative i.v. doses; format: in vivo
Protocol: Method: 5 mg/kg of ketamine hydrochloride (KETALAR FOR INTRAMUSCULAR INJECTION 500 mg, 50 mg/mL, DAIICHI SANKYO COMPANY, LIMITED) was intramuscularly administered to a 10 to 12 kg beagle dog (n=4) as a preanesthetic administration, and then anesthesia was performed by inhale of isoflurane. After intratracheal intubation, isoflurane was inhaled in a range of 1 to 5%, artificial ventilation was carried out, and a tracheal tube was intubated and mounted on a ventilator. The examinations were performed under the ventilation conditions of 10 to 25 mL/kg/stroke and 10 to 20 stroke/min. The lower abdomen was incised, the dog was cannulated in the ureters at the both sides, and urine was continually collected. After the urination became constant, the compound (A) as the first optical isomer component which had been obtained in Example 2 was dissolved in physiological saline, and cumulative doses of 0.1 mg/kg, 0.3 mg/kg, 1 mg/kg, and 3 mg/kg of Compound (A) were administered through the leg veins for 20 minutes each.
A blood sample was obtained before the start of administration of the compound [IV] and every 20 minutes after completion of administration beginning at a time immediately after completion of administration (0 minutes), and changes in urine volume from the ureters at the both sides, Na in urine, K in urine, and a serum creatinine value were examined every 20 minutes.

human renal function = assay: Action on human renal function: 8-hour urine volume after i.v. administration, double-blinded; format: in vivo, adult human (male); details: for total urine volume from 0 to 8 hours after administration: hydrochloride, 6 persons, placebo 459.8 (±184.1)
Protocol: After an adult was caused to completely urinate before administration of the compound (A), the compound (A) was administered to the adult. The study was performed in a double-blinded manner.
(§1) Method: Three groups including a group with 0 mg/kg of the compound (A) being administered (placebo group: 8 persons), a group with 0.05 mg/kg of the compound (A) being administered (6 persons), and a group with 0.15 mg/kg of the compound (A) being administered (6 persons) were made. The hydrochloride of the compound (A) was dissolved in physiological saline and intravenously administered at a rate of 2.5 mL/min for 20 minutes. The urine volume from a time immediately after administration to a time after 8 hours of administration and the maximum plasma concentration immediately after administration were measured.

[1] = tested on: ischemia/reperfusion injury in kidneys; assay: Rat kidney ischemia/reperfusion injury model (renal arteries clamped 45 minutes, then reperfusion); format: in vivo, SD rats; details: 48 hours after administration; hydrochloride, 6 mg/kg in total; n=6; placebo 6.07±0.36; before administration 0.27±0.01
Protocol: Method: Eleven 8-week-old male SD rats were used and laparotomized under anesthesia, the renal artery of the left kidney, and then after 1 minute, that of the right kidney were clamped using a non-traumatic clip for 45 minutes, and then reperfusion was performed.
The hydrochloride of the first optical isomer component (compound (A)) of the formula [IV] of the present invention was dissolved in physiological saline, and 4 mg/kg (before ischemia) and 2 mg/kg (before and after reperfusion) of the compound (A) (6 mg/kg in total) were administered for 10 minutes before ischemia and before and after reperfusion, respectively. On the other hand, the placebo group was subjected to the same procedure as in the compound (A)—administration group in every way except that only physiological saline was administered instead of physiological saline solution of the hydrochloride of the compound (A). […]
For calculation of a creatinine clearance value, the total urine of during 60 minutes before administration and during 0 to 8, 8 to 24, and 24 to 48 hours after administration were collected in each rat, and the urine volume and the value of creatinine in urine were measured. Further, a blood sample was obtained before administration and after 4, 8, 24, and 48 hours of administration and serum creatinine values were measured over time. […]

[2] = tested on: dog with complete atrioventricular block; assay: Torsades de Pointes in dog with complete atrioventricular block; format: in vivo; details: dose not given
[3] = Maximum plasma concentration immediately after i.v. administration in adult human; format: in vivo, adult human (male); details: 0.15 mg/kg i.v. for 20 minutes, hydrochloride, 6 persons
Protocol: as §1

[4] = Stability and solubility properties of the substance; format: physicochemical
[5] = tested on: dog with complete atrioventricular block; details: 1.2 mg/kg body weight; Non-Patent Document 3; cited from earlier work

COc1ccc2c(c1)CN(C(=O)CCN1CCC(Cc3ccccc3)CC1)CC[S+]2[O-] (single isomer, unassigned) [compound (A), 4-[3-(4-benzylpiperidin-1-yl)propionyl]-7-methoxy-2,3,4,5-tetrahydro-1,4-benzothiazepine-1-oxide]
excretion amount of sodium (amount of urinary sodium) vs control (dog renal function; after 1 mg/kg and 3 mg/kg i.v. (cumulative doses), n=4, FIG. 5): significant increase
excretion amount of potassium (amount of urinary potassium) vs control (dog renal function; after 1 mg/kg and 3 mg/kg i.v. (cumulative doses), n=4, FIG. 6): significant increase
serum creatinine value vs control (dog renal function; after 1 mg/kg and 3 mg/kg i.v. (cumulative doses), n=4, FIG. 7): significant decrease
urine volume vs control (dog renal function; after 1 mg/kg and 3 mg/kg i.v. (cumulative doses, 20 minutes each), n=4, paired t, FIG. 4): significant increase
total urine volume from 0 to 8 hours after administration (human renal function; 0.05 mg/kg i.v. for 20 minutes): 545.2 (±362.1) mL
increase in urine volume as compared to the placebo group (significance) (human renal function; 0.05 mg/kg i.v., 0 to 8 hours): significant (p<0.05) increase in urine volume was not recognized
total urine volume from 0 to 8 hours after administration (human renal function; 0.15 mg/kg i.v. for 20 minutes): 914.2 (±431.0) mL
increase in urine volume as compared to the placebo group (significance) (human renal function; 0.15 mg/kg i.v., 0 to 8 hours): significant (p<0.05) increase
urine volume relative to that of the placebo group (human renal function; 0.15 mg/kg i.v., 0 to 8 hours): approximately two times
serum creatinine value [1]: 3.02 ± 0.82 mg/dL
occurrence of Torsades de Pointes [2]: does not cause Torsades de Pointes
blood concentration immediately after administration [3]: 349.3 ± 93.7 ng/mL
solubility [4]: water-soluble

COc1ccc2c(c1)CN(C(=O)CCN1CCC(Cc3ccccc3)CC1)CC[S+]2[O-] (stereo not drawn) [oxalate of the compound [Ia]] [4-[3-(4-benzylpiperidin-1-yl)propionyl]-7-methoxy-2,3,4,5-tetrahydro-1,4-benzothiazepine-1-oxide]
solubility [4]: soluble in water, ethanol, and dimethyl sulfoxide

COc1ccc2c(c1)CN(C(=O)CCN1CCC(Cc3ccccc3)CC1)CCS2 [JTV519, 4-[3-(4-benzylpiperidin-1-yl)propionyl]-7-methoxy-2,3,4,5-tetrahydro-1,4-benzothiazepine]
occurrence of Torsades de Pointes [5]: Torsades de Pointes that is life-threatening arrhythmia occurs

COc1ccc2c(c1)CN(C(=O)CCN1CCC(Cc3ccccc3)CC1)CC[S+]2[O-] (stereo not drawn) [compound having the above formula [Ia]] [4-[3-(4-benzylpiperidin-1-yl)propionyl]-7-methoxy-2,3,4,5-tetrahydro-1,4-benzothiazepine-1-oxide]
skin irritating property (Skin irritating property): has a skin irritating property
solubility [4]: easily dissolved in ethanol and dimethyl sulfoxide (DMSO)
stability ([4]; room temperature): stable to oxygen, humidity, acid, and alkali
